ChEMBL document CHEMBL1201862, “PubChem BioAssay data set” (2004)
Calls of active or inactive are those of the source.

How the values were obtained:
[1] = target: Cytochrome P450 3A4 (Homo sapiens, UniProt P08684);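 note: CYP3A4 tested as one member of a cytochrome P450 panel screen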
[2] = target: T1, Cytochrome P450 1A2 (Homo sapiens, UniProt P05177);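 note: PubChem cytochrome P450 panel assay, CYP1A2 panel member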
T1 sequence (P05177 whole entry): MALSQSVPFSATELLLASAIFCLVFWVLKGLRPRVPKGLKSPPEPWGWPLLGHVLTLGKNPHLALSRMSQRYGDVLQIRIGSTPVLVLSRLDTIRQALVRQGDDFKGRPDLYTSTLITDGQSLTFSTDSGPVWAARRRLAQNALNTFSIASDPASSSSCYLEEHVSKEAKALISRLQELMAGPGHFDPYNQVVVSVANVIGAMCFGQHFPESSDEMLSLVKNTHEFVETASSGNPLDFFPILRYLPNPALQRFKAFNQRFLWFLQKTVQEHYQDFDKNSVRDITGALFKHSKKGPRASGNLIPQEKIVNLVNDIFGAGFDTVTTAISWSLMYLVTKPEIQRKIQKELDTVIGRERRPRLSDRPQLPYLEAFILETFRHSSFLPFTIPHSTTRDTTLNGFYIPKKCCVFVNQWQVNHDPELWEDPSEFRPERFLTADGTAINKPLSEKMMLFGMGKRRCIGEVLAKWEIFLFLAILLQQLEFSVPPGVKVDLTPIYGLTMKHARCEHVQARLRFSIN

[3] = target: T2, Heat shock factor protein 1 (Mus musculus, UniProt P38532); assay: inhibition of MG132-induced HSE-luciferase signal, confirmation, cell-based, NIH3T3, luminescence, dose retest (AID 2382); assay type: functional;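 note: NIH3T3 fibroblasts with HSF1-driven luciferase reporter stressed by proteasome inhibitor MG132; luminescence from HSF1-driven luciferase expression after 8 hours of MG132 stress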
T2 sequence (P38532 whole entry): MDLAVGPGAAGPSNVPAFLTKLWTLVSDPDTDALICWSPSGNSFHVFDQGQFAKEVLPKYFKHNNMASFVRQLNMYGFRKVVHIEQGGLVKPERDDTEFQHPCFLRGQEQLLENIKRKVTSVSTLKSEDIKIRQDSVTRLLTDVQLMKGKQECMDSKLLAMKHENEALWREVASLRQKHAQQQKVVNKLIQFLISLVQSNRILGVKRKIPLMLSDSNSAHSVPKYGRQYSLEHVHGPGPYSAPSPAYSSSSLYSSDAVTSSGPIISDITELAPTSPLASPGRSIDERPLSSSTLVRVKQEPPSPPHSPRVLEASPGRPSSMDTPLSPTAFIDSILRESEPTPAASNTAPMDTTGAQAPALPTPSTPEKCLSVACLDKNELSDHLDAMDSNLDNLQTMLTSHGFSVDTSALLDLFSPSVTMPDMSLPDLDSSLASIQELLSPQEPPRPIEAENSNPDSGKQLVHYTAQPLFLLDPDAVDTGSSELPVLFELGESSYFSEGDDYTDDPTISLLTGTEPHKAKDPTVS

[4] = target: T3, Streptokinase A (Streptococcus pyogenes serotype M1, UniProt P10520); assay: S. pyogenes streptokinase expression inhibitors, potency, dose response, plasminogen activation absorbance, OD405 (AID 1914); assay type: functional, Streptococcus pyogenes M1 GAS;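 note: secreted streptokinase activity via plasminogen activation per viability signal from cell pellet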
T3 sequence (P10520 whole entry): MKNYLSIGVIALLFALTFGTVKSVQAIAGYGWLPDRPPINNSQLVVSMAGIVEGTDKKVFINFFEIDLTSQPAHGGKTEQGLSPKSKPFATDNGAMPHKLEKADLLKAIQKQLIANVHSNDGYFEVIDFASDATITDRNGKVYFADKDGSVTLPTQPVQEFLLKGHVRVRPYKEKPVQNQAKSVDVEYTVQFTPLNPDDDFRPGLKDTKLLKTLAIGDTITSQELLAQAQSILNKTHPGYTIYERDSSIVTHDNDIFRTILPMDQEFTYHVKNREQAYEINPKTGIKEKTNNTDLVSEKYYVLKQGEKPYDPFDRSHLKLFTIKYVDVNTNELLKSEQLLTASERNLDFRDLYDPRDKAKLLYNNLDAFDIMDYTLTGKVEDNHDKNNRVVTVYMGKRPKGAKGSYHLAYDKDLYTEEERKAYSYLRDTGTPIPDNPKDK

[5] = target: Cytochrome P450 2C9 (Homo sapiens, UniProt P11712)
[6] = target: Cytochrome P450 2C19 (Homo sapiens, UniProt P33261); assay: Cytochrome panel assay with activity outcomes. Panel member name: p450-cyp2c19 Compounds with AC50 equal or less than 10 uM are considered active; assay type: functional; conditions: read-out: AC50
[7] = test system: Streptococcus sp. 'group A'; assay: growth inhibition of control SK(-) GAS strain, dose response, counter-screen for streptokinase expression inhibitor project, luminescence, kanamycin, BacTiterGlo, confirmation (AID 1900); assay type: functional, organism-based
[8] = test system: Streptococcus; assay: Group A Streptococcus viability loss, dose response, counter-screen for streptokinase expression inhibitor project, luminescence, BacTiterGlo (AID 1915); assay type: functional, organism-based;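 note: potency for reduction of bacterial viability or growth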

Sequence of Cytochrome P450 3A4 (P08684 whole entry): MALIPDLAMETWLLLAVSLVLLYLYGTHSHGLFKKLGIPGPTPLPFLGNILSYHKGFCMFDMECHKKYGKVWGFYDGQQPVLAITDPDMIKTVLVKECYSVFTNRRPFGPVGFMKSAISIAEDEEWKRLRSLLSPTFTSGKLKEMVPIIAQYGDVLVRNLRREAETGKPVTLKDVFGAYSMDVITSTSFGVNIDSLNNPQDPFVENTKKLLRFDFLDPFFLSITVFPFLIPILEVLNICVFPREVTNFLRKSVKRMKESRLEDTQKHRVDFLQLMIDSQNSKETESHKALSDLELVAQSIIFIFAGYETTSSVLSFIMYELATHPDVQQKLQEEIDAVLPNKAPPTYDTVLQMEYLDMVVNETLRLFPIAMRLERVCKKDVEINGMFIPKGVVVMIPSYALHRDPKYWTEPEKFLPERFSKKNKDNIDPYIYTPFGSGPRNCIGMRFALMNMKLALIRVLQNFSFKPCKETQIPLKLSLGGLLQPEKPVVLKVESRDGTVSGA
Sequence of Cytochrome P450 2C19 (P33261 whole entry): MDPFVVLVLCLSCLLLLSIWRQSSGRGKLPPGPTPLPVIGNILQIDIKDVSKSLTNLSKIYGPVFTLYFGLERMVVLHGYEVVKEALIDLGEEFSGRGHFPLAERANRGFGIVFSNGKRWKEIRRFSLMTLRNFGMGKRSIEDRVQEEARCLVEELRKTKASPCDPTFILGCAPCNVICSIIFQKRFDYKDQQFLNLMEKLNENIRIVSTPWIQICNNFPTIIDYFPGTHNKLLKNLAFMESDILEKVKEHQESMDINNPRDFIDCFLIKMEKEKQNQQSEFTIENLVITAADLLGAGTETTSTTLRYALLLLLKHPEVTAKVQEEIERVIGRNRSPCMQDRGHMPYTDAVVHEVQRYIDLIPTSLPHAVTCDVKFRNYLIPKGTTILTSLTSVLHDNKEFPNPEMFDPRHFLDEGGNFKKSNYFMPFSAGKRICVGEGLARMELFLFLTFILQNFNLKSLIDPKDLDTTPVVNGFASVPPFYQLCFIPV
Sequence of Cytochrome P450 2C9 (P11712 whole entry): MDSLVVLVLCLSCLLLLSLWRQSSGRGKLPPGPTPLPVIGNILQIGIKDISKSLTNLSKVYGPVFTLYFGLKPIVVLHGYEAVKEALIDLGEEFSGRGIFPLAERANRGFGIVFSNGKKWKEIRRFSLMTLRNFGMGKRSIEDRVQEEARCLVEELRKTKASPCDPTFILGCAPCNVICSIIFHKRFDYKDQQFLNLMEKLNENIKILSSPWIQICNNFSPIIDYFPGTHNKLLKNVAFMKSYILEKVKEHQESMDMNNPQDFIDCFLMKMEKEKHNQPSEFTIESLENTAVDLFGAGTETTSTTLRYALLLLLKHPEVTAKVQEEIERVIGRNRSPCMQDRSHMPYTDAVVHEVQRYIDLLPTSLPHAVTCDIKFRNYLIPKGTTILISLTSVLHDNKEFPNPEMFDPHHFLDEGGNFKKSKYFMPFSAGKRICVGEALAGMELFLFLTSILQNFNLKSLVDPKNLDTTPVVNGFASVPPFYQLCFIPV

## Clc1ccc(Sc2cc(N3CCOCC3)nc(-c3ccccc3)n2)cc1
[1]
  AC50: 15.8 µM (inconclusive)
[2]
  AC50: 1.41 µM (inconclusive)

## Cc1ccc2nc(N3CCN(Cc4nnnn4Cc4ccccc4)CC3)c(C#N)cc2c1
[3]
  EC50: > 195 µM (not active)

## Cc1ccc(C(=O)NCCn2cc(SCC(=O)N3CCOCC3)c3ccccc32)cc1
[3]
  EC50: > 195 µM (not active)

## Cc1cc(C)c2c(O)nc(SCC(=O)N(C)C)nc2n1
[2]
  AC50: 15.8 µM (inconclusive)

## COc1ccc(CSCCNC(=S)Nc2ccccc2)cc1Cl
[4]
  EC50: > 150 µM (not active)

## COCCN(CCOC)S(=O)(=O)c1ccc(C(=O)Nc2nc(C)c(C(C)=O)s2)cc1
[5]
  AC50: 20 µM (inconclusive)
[1]
  AC50: 3.16 µM (inconclusive)
[2]
  AC50: 0.1 µM (inconclusive)

## Fc1cccc(CSc2ncnc3c2ncn3[C@H]2CCCS2)c1
[6]
  AC50: 3.98 µM (inconclusive)
[2]
  AC50: 0.501 µM (inconclusive)

## CC(CO)(CO)Nc1ncnc2ccccc12
[2]
  AC50: 6.31 µM (inconclusive)

## CCCC(=O)Nc1ccc2c(c1)nc(CCNC(=O)c1ccccc1)n2C
[7]
  EC50: > 150 µM (not active)
[4]
  EC50: > 150 µM (not active)
[8]
  EC50: > 150 µM (not active)

## CC1=NN(c2ccc([N+](=O)[O-])cc2)C(=O)/C1=C\N(C)C
[7]
  EC50: 5.85 µM (active)
[4]
  EC50: > 150 µM (not active)
[8]
  EC50: 10.9 µM (active)

## Cn1nnnc1SCc1ccc(C(=O)Nc2ccc(Br)cc2)cc1
[5]
  AC50: 2 µM (inconclusive)
[6]
  AC50: 6.31 µM (inconclusive)
[2]
  AC50: 6.31 µM (inconclusive)

## CC1CCCN(S(=O)(=O)c2ccc(C(=O)Nc3nnc(C4CC4)o3)cc2)C1 (stereo unspecified)
[7]
  EC50: 4.14 µM (active)
[4]
  EC50: > 150 µM (not active)
[8]
  EC50: 13.8 µM (active)

## CN1C(=O)/C(=C/c2ccccc2F)Sc2ccc(C(=O)NCC3CCCO3)cc21 (stereo unspecified)
[7]
  EC50: 1.09 µM (active)
[4]
  EC50: > 150 µM (not active)
[8]
  EC50: 15.6 µM (active)

## COc1ccc(-c2nc3cnc(N4CCOCC4)nc3n(CCc3ccccc3)c2=O)cc1
[2]
  AC50: 10 µM (inconclusive)

## CCc1cc(C(=O)NCC(C)(C)N2CCOCC2)sc1C
[3]
  EC50: > 195 µM (not active)

## C=CCC(NCc1ccco1)c1ccc(OC)cc1 (stereo unspecified)
[1]
  AC50: 22.4 µM (inconclusive)
[2]
  AC50: 28.2 µM (inconclusive)

## CCN(CC)C(=O)c1cc(-c2ccc(Br)cc2)on1
[7]
  EC50: > 150 µM (not active)
[4]
  EC50: > 150 µM (not active)
[8]
  EC50: > 150 µM (not active)

## COC(C(=O)Nc1ccnn1C1CCN(Cc2nccs2)CC1)c1ccccc1 (stereo unspecified)
[7]
  EC50: > 150 µM (not active)
[4]
  EC50: > 150 µM (not active)
[8]
  EC50: > 150 µM (not active)

## O=C(Nc1nncs1)c1ccc(F)c(S(=O)(=O)N2CCCCC2)c1
[3]
  EC50: 39.5 µM (active)

## O=C(Nc1cccc(Cl)c1)c1ccc(S(=O)(=O)NCC2CCCO2)cc1 (stereo unspecified)
[3]
  EC50: > 195 µM (not active)

## COc1ccc2nc(N3C(=O)CC(Cc4ccc(Cl)cc4)C3=O)sc2c1 (stereo unspecified)
[2]
  AC50: 2.24 µM (inconclusive)

## CC1CCC(C(C)C)C(OCC(O)CN2CCN(Cc3ccccc3)CC2)C1 (stereo unspecified)
[5]
  AC50: 1.41 µM (inconclusive)
[2]
  AC50: 12.6 µM (inconclusive)

## Cc1noc(C)c1C(=O)Nc1nccs1
[7]
  EC50: > 150 µM (not active)
[4]
  EC50: > 150 µM (not active)
[8]
  EC50: > 150 µM (not active)

## O=C(O)C1CCC(=O)N(C2CCCCC2)C1c1ccccc1Cl (stereo unspecified)
[3]
  EC50: > 195 µM (not active)

## CCOC(=O)c1cc2occc2n1CC(=O)N1CCCc2ccccc21
[3]
  EC50: > 195 µM (not active)

## Cc1cccc(N2CCN(Cc3nc(-c4ccccc4Cl)oc3C)CC2)n1
[3]
  EC50: > 195 µM (not active)

## Sc1nnc(C2CCCCC2)n1/N=C/c1c(Cl)cccc1Cl
[7]
  EC50: 10.1 µM (active)
[4]
  EC50: > 150 µM (not active)
[8]
  EC50: 71.9 µM (active)

## COc1ccc(/C(C)=N/NC(=O)c2ccc(N(C)C)cc2)cc1
[2]
  AC50: 10 µM (inconclusive)

## Cc1ccc(/C=N/n2cnnc2)s1
[5]
  AC50: 14.1 µM (inconclusive)
[1]
  AC50: 15.8 µM (inconclusive)
[6]
  AC50: 11.2 µM (inconclusive)
[2]
  AC50: 22.4 µM (inconclusive)
